From ChEMBL document CHEMBL1201862, “PubChem BioAssay data set” (2004)
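Briefly, cells in 96-well plates were exposed to five compound concentrations for 48 h, and endpoints were estimated by linear interpolation. Here, GI50 denotes the concentration required for 50% inhibition of growth.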 The source made the active and inactive calls. Cut-off read from the data, not from the text of the source: active = GI50 up to about 1.1 µM and inactive = higher.

Key:
Experiment in all cases: DTP human tumour cell line panel, 48 h
HCT-116 = tested on: HCT-116
SK-MEL-28 = tested on: SK-MEL-28
KM-20L2 = tested on: KM-20L2
M19-MEL = tested on: M19-MEL
EKVX = tested on: EKVX
SR = tested on: SR
SN12C = tested on: SN12C
KM12 = tested on: KM12
NCI-H460 = tested on: NCI-H460
HOP-62 = tested on: HOP-62
SF-295 = tested on: SF-295
DMS-114 = tested on: DMS-114
RXF 631 = tested on: RXF 631
UACC-257 = tested on: UACC-257
RPMI-8226 = tested on: RPMI-8226
HL-60 = tested on: HL-60
HOP-92 = tested on: HOP-92
OVCAR-5 = tested on: OVCAR-5
IGROV-1 = tested on: IGROV-1
UO-31 = tested on: UO-31
RXF 393 = tested on: RXF 393
DMS-273 = tested on: DMS-273
COLO 205 = tested on: COLO 205
A549 = tested on: A549
Malme-3M = tested on: Malme-3M
SK-MEL-5 = tested on: SK-MEL-5
HCT-15 = tested on: HCT-15
A498 = tested on: A498
SK-OV-3 = tested on: SK-OV-3
U-251 = tested on: U-251
786-0 = tested on: 786-0
OVCAR-3 = tested on: OVCAR-3
SF-539 = tested on: SF-539
OVCAR-4 = tested on: OVCAR-4
NCI-H23 = tested on: NCI-H23
UACC-62 = tested on: UACC-62
OVCAR-8 = tested on: OVCAR-8
HT-29 = tested on: HT-29
M14 = tested on: M14
ACHN = tested on: ACHN
K562 = tested on: K562
SW-620 = tested on: SW-620
SNB-19 = tested on: SNB-19
HCC 2998 = tested on: HCC 2998
TK-10 = tested on: TK-10
DLD-1 = tested on: DLD-1
NCI-H522 = tested on: NCI-H522
HOP-18 = tested on: HOP-18
SF-268 = tested on: SF-268
LXFL 529 = tested on: LXFL 529
SNB-75 = tested on: SNB-75
LOX IMVI = tested on: LOX IMVI
SNB-78 = tested on: SNB-78
SK-MEL-2 = tested on: SK-MEL-2
CAKI-1 = tested on: CAKI-1
CCRF-CEM = tested on: CCRF-CEM
XF498 = tested on: XF498
NCI-H226 = tested on: NCI-H226
MOLT-4 = tested on: MOLT-4

CCOC(=O)NC(=O)c1cn(CCOCCOC(=O)NCCCCCCNC(=O)OCCOCCn2cc(C(=O)NC(=O)OCC)c(=O)[nH]c2=O)c(=O)[nH]c1=O
GI50 (HCT-116): > 100 µM (inactive)
GI50 (SK-MEL-28): > 100 µM (inactive)
GI50 (KM-20L2): > 100 µM (inactive)
GI50 (M19-MEL): > 100 µM (inactive)
GI50 (EKVX): > 100 µM (inactive)
GI50 (SR): > 100 µM (inactive)
GI50 (SN12C): > 100 µM (inactive)
GI50 (KM12): > 100 µM (inactive)
GI50 (NCI-H460): > 100 µM (inactive)
GI50 (HOP-62): > 100 µM (inactive)
GI50 (SF-295): > 100 µM (inactive)
GI50 (DMS-114): > 100 µM (inactive)
GI50 (RXF 631): > 100 µM (inactive)
GI50 (UACC-257): > 100 µM (inactive)
GI50 (RPMI-8226): > 100 µM (inactive)
GI50 (HL-60): > 100 µM (inactive)
GI50 (HOP-92): > 100 µM (inactive)
GI50 (OVCAR-5): > 100 µM (inactive)
GI50 (IGROV-1): > 100 µM (inactive)
GI50 (UO-31): > 100 µM (inactive)
GI50 (RXF 393): > 100 µM (inactive)
GI50 (DMS-273): > 100 µM (inactive)
GI50 (COLO 205): > 100 µM (inactive)
GI50 (A549): > 100 µM (inactive)
GI50 (Malme-3M): > 100 µM (inactive)
GI50 (SK-MEL-5): > 100 µM (inactive)
GI50 (HCT-15): > 100 µM
GI50 (A498): > 100 µM (inactive)
GI50 (SK-OV-3): > 100 µM (inactive)
GI50 (U-251): > 100 µM (inactive)
GI50 (786-0): > 100 µM (inactive)
GI50 (OVCAR-3): > 100 µM (inactive)
GI50 (SF-539): > 100 µM (inactive)
GI50 (OVCAR-4): > 100 µM (inactive)
GI50 (NCI-H23): > 100 µM (inactive)
GI50 (UACC-62): > 100 µM (inactive)
GI50 (OVCAR-8): > 100 µM (inactive)
GI50 (HT-29): > 100 µM (inactive)
GI50 (M14): > 100 µM (inactive)
GI50 (ACHN): > 100 µM (inactive)
GI50 (K562): > 100 µM (inactive)
GI50 (SW-620): > 100 µM (inactive)
GI50 (SNB-19): > 100 µM (inactive)
GI50 (HCC 2998): > 100 µM (inactive)
GI50 (TK-10): > 100 µM (inactive)
GI50 (DLD-1): > 100 µM (inactive)
GI50 (NCI-H522): > 100 µM (inactive)
GI50 (HOP-18): > 100 µM (inactive)
GI50 (SF-268): > 100 µM (inactive)
GI50 (LXFL 529): > 100 µM (inactive)
GI50 (SNB-75): > 100 µM (inactive)
GI50 (LOX IMVI): > 100 µM (inactive)
GI50 (SNB-78): > 100 µM (inactive)
GI50 (SK-MEL-2): > 100 µM (inactive)

Cc1cc(N(CCC#N)CCC#N)ccc1/N=N/c1ccc(S(N)(=O)=O)cc1
GI50 (CAKI-1): 28.4 µM (inactive)
GI50 (SK-MEL-28): > 100 µM (inactive)
GI50 (EKVX): > 100 µM (inactive)
GI50 (SN12C): > 100 µM (inactive)
GI50 (KM12): > 100 µM (inactive)
GI50 (HOP-62): > 100 µM (inactive)
GI50 (SF-295): > 100 µM (inactive)
GI50 (CCRF-CEM): > 100 µM (inactive)
GI50 (DMS-114): > 100 µM (inactive)
GI50 (XF498): 0.0413 µM (active)
GI50 (RXF 631): > 100 µM (inactive)
GI50 (UACC-257): > 100 µM (inactive)
GI50 (RPMI-8226): > 100 µM (inactive)
GI50 (HL-60): > 100 µM (inactive)
GI50 (OVCAR-5): > 100 µM (inactive)
GI50 (IGROV-1): > 100 µM (inactive)
GI50 (UO-31): 85.5 µM (inactive)
GI50 (RXF 393): > 100 µM (inactive)
GI50 (DMS-273): > 100 µM (inactive)
GI50 (COLO 205): > 100 µM (inactive)
GI50 (A549): > 100 µM (inactive)
GI50 (NCI-H226): > 100 µM (inactive)
GI50 (Malme-3M): > 100 µM (inactive)
GI50 (SK-MEL-5): > 100 µM (inactive)
GI50 (HCT-15): > 100 µM
GI50 (A498): > 100 µM (inactive)
GI50 (SK-OV-3): > 100 µM (inactive)
GI50 (U-251): > 100 µM (inactive)
GI50 (786-0): > 100 µM (inactive)
GI50 (OVCAR-3): > 100 µM (inactive)
GI50 (SF-539): > 100 µM (inactive)
GI50 (OVCAR-4): > 100 µM (inactive)
GI50 (NCI-H23): > 100 µM (inactive)
GI50 (UACC-62): > 100 µM (inactive)
GI50 (OVCAR-8): > 100 µM (inactive)
GI50 (HT-29): > 100 µM (inactive)
GI50 (MOLT-4): > 100 µM (inactive)
GI50 (M14): > 100 µM (inactive)
GI50 (ACHN): > 100 µM (inactive)
GI50 (K562): > 100 µM (inactive)
GI50 (SW-620): > 100 µM (inactive)
GI50 (SNB-19): > 100 µM (inactive)
GI50 (HCC 2998): > 100 µM (inactive)
GI50 (TK-10): > 100 µM (inactive)
GI50 (DLD-1): > 100 µM (inactive)
GI50 (NCI-H522): > 100 µM (inactive)
GI50 (HOP-18): 51.1 µM (inactive)
GI50 (SF-268): > 100 µM (inactive)
GI50 (LXFL 529): > 100 µM (inactive)
GI50 (SNB-75): > 100 µM (inactive)
GI50 (LOX IMVI): > 100 µM (inactive)
GI50 (SNB-78): > 100 µM (inactive)
GI50 (SK-MEL-2): > 100 µM (inactive)

CN1C(OCc2ccccc2)c2c(ccc3c2OCO3)C2C=Cc3cc4c(cc3C21)OCO4 (stereo not drawn)
GI50 (HCT-116): 0.398 µM (active)
GI50 (CAKI-1): 1.03 µM (active)
GI50 (SK-MEL-28): 0.455 µM (active)
GI50 (KM-20L2): 1.59 µM (inactive)
GI50 (M19-MEL): 0.19 µM (active)
GI50 (EKVX): 1.62 µM (inactive)
GI50 (SR): 0.237 µM (active)
GI50 (SN12C): 1.32 µM (inactive)
GI50 (KM12): 1.01 µM (active)
GI50 (NCI-H460): 1.48 µM (inactive)
GI50 (HOP-62): 1.58 µM (inactive)
GI50 (SF-295): 1.47 µM (inactive)
GI50 (CCRF-CEM): 0.254 µM (active)
GI50 (DMS-114): 0.305 µM (active)
GI50 (RXF 631): 0.841 µM (active)
GI50 (UACC-257): 1.37 µM (inactive)
GI50 (RPMI-8226): 0.221 µM (active)
GI50 (HL-60): 0.226 µM (active)
GI50 (HOP-92): 1.08 µM (active)
GI50 (OVCAR-5): 1.52 µM (inactive)
GI50 (IGROV-1): 0.792 µM (active)
GI50 (UO-31): 1.32 µM (inactive)
GI50 (RXF 393): 1.1 µM (active)
GI50 (COLO 205): 1.02 µM (active)
GI50 (A549): 1.49 µM (inactive)
GI50 (NCI-H226): 1.47 µM (inactive)
GI50 (Malme-3M): 1.26 µM (inactive)
GI50 (SK-MEL-5): 1.31 µM (inactive)
GI50 (HCT-15): 0.597 µM
GI50 (SK-OV-3): 1.22 µM (inactive)
GI50 (U-251): 1.51 µM (inactive)
GI50 (786-0): 1.36 µM (inactive)
GI50 (OVCAR-3): 0.69 µM (active)
GI50 (SF-539): 1.63 µM (inactive)
GI50 (OVCAR-4): 1.69 µM (inactive)
GI50 (NCI-H23): 1.38 µM (inactive)
GI50 (UACC-62): 1.2 µM (inactive)
GI50 (OVCAR-8): 0.319 µM (active)
GI50 (HT-29): 0.375 µM (active)
GI50 (MOLT-4): 0.223 µM (active)
GI50 (M14): 0.885 µM (active)
GI50 (ACHN): 1.51 µM (inactive)
GI50 (K562): 0.611 µM (active)
GI50 (SW-620): 0.38 µM (active)
GI50 (SNB-19): 1.69 µM (inactive)
GI50 (HCC 2998): 1.63 µM (inactive)
GI50 (TK-10): 1.89 µM (inactive)
GI50 (DLD-1): 0.434 µM (active)
GI50 (NCI-H522): 0.989 µM (active)
GI50 (HOP-18): 1.33 µM (inactive)
GI50 (SF-268): 0.475 µM (active)
GI50 (LXFL 529): 0.371 µM (active)
GI50 (SNB-75): 1.4 µM (inactive)
GI50 (LOX IMVI): 0.182 µM (active)
GI50 (SNB-78): 0.598 µM (active)
GI50 (SK-MEL-2): 1.55 µM (inactive)
